Data taken from PMC10711620 (Frontiers in Pharmacology, 2023).
pIC50: −log10 of the molar value. Like-named read-outs stand apart in the source and are kept apart here.

Experiments:
[1] = tested on: blood platelets; test: ADP-induced blood platelet aggregation in platelet-rich plasma; format: cell-based; conditions: Homo sapiens; for inhibition at 50 µg/mL: 50 μg/mL, ADP as agonist
Description: (§1) The blood samples under examination contained a normal range of blood platelets, ranging from 2.15 × 10^5 to 3.41 × 10^5 cells/μl. Platelet-rich plasma (PRP) was prepared by differentially centrifuging whole blood according to the method described earlier ([Kolodziejczyk-Czepas et al., 2021]). Subsequently, freshly obtained PRP samples (495 μL) were pre-incubated for 15 min at 37°C with the tested analytes (5 μL). These mixtures were then transferred into Chrono-Log 490 aggregometer cuvettes (Havertown, United States). Platelet aggregation measurements were conducted after stimulating the samples with either ADP (a final concentration of 10 μM) or collagen (a final concentration of 2 μg/mL), following the manufacturer’s instructions.

[2] = tested on: human plasma; test: Thrombin time (TT) in blood plasma; format: biochemical; conditions: mean ± SE, n = 12
Description: (§2) When determining the hemostatic parameters, stock solutions of the P. spinosa flower extracts (10 mg/mL) were prepared in 30% DMSO. DMSO concentrations in working solutions of the tested extracts (0.1, 0.5 and 5 mg/mL) were 15%. The studies mixed 5 µL of the extracts with 495 µL of blood plasma or thrombin solution. Control samples were untreated with the extracts; however, they contained a vehicle for the plant preparations, i.e., DMSO. The effect of DMSO on the investigated parameters was excluded in preliminary tests. All experiments used argatroban, a reference anticoagulant drug, as a positive control.
(§3) Thrombin (TT), prothrombin (PT) and the activated partial thromboplastin time (APTT) were measured in blood plasma using a Kselmed K-3002 Optic coagulometer (Kselmed, Grudziadz, Poland) and reagents purchased from Diagon Kft. (Budapest, Hungary), according to the laboratory protocols delivered by the manufacturer. Before the assays, the blood plasma samples were pre-incubated with the examined extracts at the final 1–50 μg/mL concentration for 15 min at 37°C. Control samples were prepared using blood plasma untreated with the extracts.

[3] = tested on: human plasma; test: Activated partial thromboplastin time (APTT) in blood plasma; format: biochemical; conditions: mean ± SE, n = 12
Description: as §2
as §3, with “Before the assays, the blood plasma samples were pre-incubated with the examined extracts at the final 1–50 μg/mL concentration for 15 min at 37°C.” left out

[4] = tested on: human plasma; test: Prothrombin time (PT) in blood plasma; format: biochemical; conditions: mean ± SE, n = 12
Description: When determining the hemostatic parameters, stock solutions of the P. spinosa flower extracts (10 mg/mL) were prepared in 30% DMSO. […] The studies mixed 5 µL of the extracts with 495 µL of blood plasma or thrombin solution. Control samples were untreated with the extracts; however, they contained a vehicle for the plant preparations, i.e., DMSO.
(Budapest, Hungary), according to the laboratory protocols delivered by the manufacturer. […] Control samples were prepared using blood plasma untreated with the extracts.

[5] = molecular target: T1, thrombin (Bos taurus, UniProt P00735); parameters: method as in Liu et al. (2010); conditions: ref Liu et al. (2010); read-out: IC50, thrombin inhibition in optimized TT assay; cited from earlier work
T1 construct: comprises two polypeptide chains: the light chain, formed by 36 amino acids, and the heavy chain, which has 259 amino acids; purchased Biomed (Lublin, Poland)

[6] = tested on: thrombin; parameters: method as in Wei et al. (2019); conditions: ref Wei et al. (2019); read-out: IC50, inhibition of proteolytic activity of thrombin; cited from earlier work
[7] = tested on: blood platelets; test: Collagen-induced blood platelet aggregation in platelet-rich plasma; format: cell-based; conditions: Homo sapiens, 5 μg/mL
Description: as §1

[8] = molecular target: T1, thrombin; test: Amidolytic activity of thrombin, chromogenic substrate S-2238; format: biochemical; conditions: read-out: IC50, thrombin-inhibitory efficiency in the amidolytic tests (converted)
Description: When determining the hemostatic parameters, stock solutions of the P. spinosa flower extracts (10 mg/mL) were prepared in 30% DMSO. DMSO concentrations in working solutions of the tested extracts (0.1, 0.5 and 5 mg/mL) were 15%. The studies mixed 5 µL of the extracts with 495 µL of blood plasma or thrombin solution. Control samples were untreated with the extracts; however, they contained a vehicle for the plant preparations, i.e., DMSO.
The thrombin enzyme, purchased from Biomed (Lublin, Poland), was diluted with 0.05 M Tris-buffered saline (TBS), pH 7.4, to the concentration of 0.75 U/mL, and pre-incubated with the examined extracts at the final concentration of 1–50 μg/mL for 10 min, at 37°C. In control samples, 20% DMSO instead of the extracts was used. The measurements were conducted using a kinetic protocol, with absorbance recorded at 415 nm, every 10 s, for 15 min. The reaction mixture comprised 280 µL of thrombin (pre-incubated with the extracts or control/untreated enzyme) and 40 µL of 3 mM chromogenic substrate Chromogenix S-2238 purchased from Instrumentation Laboratory (Bedford, MA, United States of America). Thrombin amidolytic activity was estimated using the BMG Labtech software based on the maximal velocity of the reaction (Vmax). The assays were performed using 96-well microplates and the BMG Labtech SpectroStar Nano spectrophotometer (BMG LABTECH, Offenburg, Germany).

[9] = molecular target: T2, human thrombin (Homo sapiens, UniProt P00734); test: Circular dichroism spectra of thrombin; conditions: thrombin 15 μg/mL, compounds from 1 μg/mL, 37°C
T2 construct: comprises two polypeptide chains: the light chain, formed by 36 amino acids, and the heavy chain, which has 259 amino acids; purchased Sigma-Aldrich (St. Louis, MO, United States)
Description: Each spectrum was the average of three repetitions. Human thrombin was used at a 15 μg/mL concentration in 10 mM phosphate buffer (pH = 7.4). In determining circular dichroism spectra, stock solutions of P. spinosa flower components (10 mg/mL) in 10% tetrahydrofuran were initially prepared. The final concentration of tetrahydrofuran in the sample was less than 0.05%. The selected extract components in phosphate buffer without thrombin at the concentrations used in the experiments were used as a baseline for thrombin/extract complexes spectra.

In the case of O=c1c(O[C@@H]2O[C@@H](CO)[C@H](O)[C@H]2O)c(-c2ccc(O)c(O)c2)oc2cc(O)cc(O)c12 [AV, Quercetin 3-O-α-L-arabinofuranoside], the inhibition at 50 µg/mL [1] was no more than 15%.

In the case of CC1CNc2c(cccc2S(=O)(=O)N[C@@H](CCCNC(=N)N)C(=O)N2CC[C@@H](C)C[C@@H]2C(=O)O)C1 (stereo partly shown) [Argatroban], the “Clothing times TT” value ([2]; 0.5 µg/mL) was 974.60 ± 27.50 % of the control/untreated human plasma, the “Clothing times TT” value ([2]; 5 µg/mL) was “No clot” and the “Clothing times TT” value ([2]; 10 µg/mL) was “No clot”. The “Clothing times APTT” value ([3]; 0.5 µg/mL) was 202.58 ± 2.32 % of the control/untreated human plasma, the “Clothing times APTT” value ([3]; 5 µg/mL) was 423.72 ± 7.83 % of the control/untreated human plasma and the “Clothing times APTT” value ([3]; 10 µg/mL) was “No clot”. For the same compound, the “Clothing times PT” value ([4]; 0.5 µg/mL) was 134.01 ± 1.50 % of the control/untreated human plasma, the “Clothing times PT” value ([4]; 5 µg/mL) was 562.65 ± 12.69 % of the control/untreated human plasma and the “Clothing times PT” value ([4]; 10 µg/mL) was 821.54 ± 46.95 % of the control/untreated human plasma.

For O=c1c(O[C@@H]2O[C@H](CO)[C@H](O)[C@H](O)[C@H]2O)c(-c2ccc(O)c(O)c2)oc2cc(O)cc(O)c12 [HY, Quercetin 3-O-β-D-galactopyranoside], the pIC50 [5] is listed as less than 3.00.

For O=c1c(O[C@@H]2O[C@H](CO)[C@@H](O)[C@H](O)[C@H]2O)c(-c2ccc(O)c(O)c2)oc2cc(O)cc(O)c12 [IQ, Quercetin 3-O-β-D-glucopyranoside], the pIC50 [6] is given as 4.54.

COc1ccc2c(c1)c(CC(=O)O)c(C)n2C(=O)c1ccc(Cl)cc1 [Indomethacin] gave an inhibition at 5 µg/mL ([1]; 5 μg/mL, ADP) of roughly 23% and an inhibition at 5 µg/mL [7] of roughly 86%.

Compound O=c1c(O[C@@H]2O[C@@H](CO)[C@H](O)[C@H]2O)c(-c2ccc(O)cc2)oc2cc(O)cc(O)c12 [JU, Kaempferol 3-O-α-L-arabinofuranoside] has an inhibition at 50 µg/mL [1] of no more than 15%.

For O=c1c(O)c(-c2ccc(O)cc2)oc2cc(O)cc(O)c12 [KA, Kaempferol], the IC50 [8] is listed as 283 µM and the pIC50 [5] is listed as 3.96.

In the case of Oc1cc(O)c2c(c1)O[C@@]1(c3ccc(O)c(O)c3)Oc3cc(O)c4c(c3[C@@H]2[C@H]1O)O[C@H](c1ccc(O)c(O)c1)[C@H](O)C4 [PA2, proanthocyanidin A2], the IC50 [8] was 90.8 µM and the “Change of thrombin CD spectrum / secondary structure” value [9] was “most apparent modification of the thrombin α-helix structure”.

In the case of C[C@@H]1O[C@@H](OC[C@H]2O[C@@H](Oc3c(-c4ccc(O)c(O)c4)oc4cc(O)cc(O)c4c3=O)[C@H](O)[C@@H](O)[C@@H]2O)[C@H](O)[C@H](O)[C@H]1O [RT, Quercetin 3-O-(6″-O-α-L-rhamnopyranosyl)-β-D-glucopyranoside], the pIC50 [6] is listed as 4.47 and the pIC50 [5] is listed as less than 3.00.

For C[C@@H]1O[C@@H](Oc2c(-c3ccc(O)cc3)oc3cc(O)cc(O)c3c2=O)[C@H](OC(=O)/C=C/c2ccc(O)cc2)[C@H](O)[C@H]1OC(=O)/C=C/c1ccc(O)cc1 [kaempferol-3-O-(2″,4″-di-E-p-coumaroyl)-rhamnoside], the pIC50 [5] is listed as 4.28.

For O=c1c(O[C@@H]2O[C@H](CO)[C@@H](O)[C@H](O)[C@H]2O)c(-c2ccc(O)cc2)oc2cc(O)cc(O)c12 [kaempferol-3-O-glucoside], the pIC50 [5] is listed as less than 3.00.

O=C(/C=C/c1ccc(O)cc1)O[C@H]1[C@H](Oc2c(-c3ccc(O)cc3)oc3cc(O)cc(O)c3c2=O)O[C@@H](CO)[C@@H]1O [p-cJU, Kaempferol 3-O-(2″-O-E-p-coumaroyl)-α-L-arabinofuranoside] gave an IC50 [8] of 67.8 µM.

In the case of “kaempferol-3-O-(2″-di-E-p-coumaroyl)-rhamnoside”, the pIC50 [5] is given as 4.08.
